Data as given in ChEMBL document CHEMBL3751764, “Synthesis and in vitro antiproliferative activity of novel pyrazolo[3,4-d]pyrimidine derivatives” (Medchemcomm, 2015).
Calls of active or inactive are those of the source. The calls are words filed in the database; no cut-off is given here.

Tests used:
NCI-H522 = assay: Cytotoxicity against human NCI-H522 cells after 72 hrs by SRB assay; assay type: functional; conditions: NCI-H522, 72 h
[1] = Cytotoxicity against human HCT116 cells after 72 hrs by SRB assay; assay type: functional; conditions: HCT-116, 72 h
[2] = Cytotoxicity against human SF268 cells after 72 hrs by SRB assay; assay type: functional; conditions: SF-268, 72 h
[3] = Cytotoxicity against human UACC62 cells after 72 hrs by SRB assay; assay type: functional; conditions: UACC-62, 72 h
[4] = Cytotoxicity against human SKOV3 cells after 72 hrs by SRB assay; assay type: functional; conditions: SK-OV-3, 72 h
786-0 = assay: Cytotoxicity against human 786-0 cells after 72 hrs by SRB assay; assay type: functional; conditions: 786-0, 72 h
[5] = Cytotoxicity against human UO31 cells after 72 hrs by SRB assay; assay type: functional; conditions: UO-31, 72 h
[6] = Cytotoxicity against human PC3 cells after 72 hrs by SRB assay; assay type: functional; conditions: PC-3, 72 h
[7] = biological target: Epidermal growth factor receptor (Homo sapiens) (UniProt P00533); assay: Inhibition of human EGFR at 10 uM after 20 to 40 mins by liquid scintillation counting analysis in presence of […]
Chain of Epidermal growth factor receptor (Homo sapiens) (P00533 whole entry): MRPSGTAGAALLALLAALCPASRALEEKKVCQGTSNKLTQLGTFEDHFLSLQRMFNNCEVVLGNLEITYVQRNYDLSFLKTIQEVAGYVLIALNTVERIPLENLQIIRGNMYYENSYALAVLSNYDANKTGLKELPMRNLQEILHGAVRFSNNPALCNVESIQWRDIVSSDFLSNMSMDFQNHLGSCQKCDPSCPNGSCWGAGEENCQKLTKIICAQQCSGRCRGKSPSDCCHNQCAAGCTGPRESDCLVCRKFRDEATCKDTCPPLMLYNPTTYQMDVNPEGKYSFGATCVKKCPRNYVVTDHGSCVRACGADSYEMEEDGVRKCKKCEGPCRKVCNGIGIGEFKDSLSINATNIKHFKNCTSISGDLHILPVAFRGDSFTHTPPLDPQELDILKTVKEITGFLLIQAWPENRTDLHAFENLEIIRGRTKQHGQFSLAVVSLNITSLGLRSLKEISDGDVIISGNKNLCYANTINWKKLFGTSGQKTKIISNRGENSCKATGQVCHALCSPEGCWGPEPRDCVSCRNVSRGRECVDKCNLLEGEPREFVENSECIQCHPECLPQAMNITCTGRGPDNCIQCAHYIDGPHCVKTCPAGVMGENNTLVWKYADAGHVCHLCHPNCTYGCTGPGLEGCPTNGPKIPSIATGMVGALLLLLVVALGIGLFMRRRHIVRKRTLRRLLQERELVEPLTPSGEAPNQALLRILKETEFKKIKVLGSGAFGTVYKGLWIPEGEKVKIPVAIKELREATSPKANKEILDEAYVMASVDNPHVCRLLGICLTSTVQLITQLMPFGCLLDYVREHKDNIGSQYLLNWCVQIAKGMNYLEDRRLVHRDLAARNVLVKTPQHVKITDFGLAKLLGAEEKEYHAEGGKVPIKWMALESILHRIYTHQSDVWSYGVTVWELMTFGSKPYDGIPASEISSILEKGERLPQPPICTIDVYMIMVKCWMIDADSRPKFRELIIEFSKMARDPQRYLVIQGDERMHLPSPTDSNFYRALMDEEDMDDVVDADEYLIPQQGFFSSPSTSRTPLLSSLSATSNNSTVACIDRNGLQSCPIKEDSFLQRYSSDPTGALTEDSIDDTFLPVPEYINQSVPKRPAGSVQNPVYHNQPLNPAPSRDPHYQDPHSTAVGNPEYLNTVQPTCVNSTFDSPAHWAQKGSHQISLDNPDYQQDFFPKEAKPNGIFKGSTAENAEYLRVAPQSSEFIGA

[8] = read-out: LC50 (the source's name)

O=C(NC1CCCCC1)c1ccc(Nc2ncnc3c2cnn3-c2ccccc2)cc1
GI50 (NCI-H522): 6.4 µM
TGI (NCI-H522): > 100 µM
CC50 (NCI-H522; [8]): > 100 µM
GI50 [1]: 4.01 µM
TGI [1]: > 100 µM
CC50 [1, 8]: > 100 µM
GI50 [2]: 5.85 µM
TGI [2]: > 100 µM
CC50 [2, 8]: > 100 µM
GI50 [3]: 17.4 µM
TGI [3]: > 100 µM
CC50 [3, 8]: > 100 µM
GI50 [4]: 2.95 µM
TGI [4]: 8.7 µM
CC50 [4, 8]: 51.1 µM
GI50 (786-0): 3.47 µM
TGI (786-0): 18.3 µM
CC50 (786-0; [8]): 65.5 µM
GI50 [5]: 23.9 µM
TGI [5]: > 100 µM
CC50 [5, 8]: > 100 µM
GI50 [6]: 11.8 µM
TGI [6]: 44.8 µM
CC50 [6, 8]: > 100 µM

Cc1ccc2nc(Nc3ncnc4c3cnn4-c3ccccc3)sc2c1
inhibition [7]: inactive
